Assay results reported in US20130143742A1, “HERBICIDAL COMPOSITION” (SUMITOMO CHEMICAL COMPANY, LIMITED, priority 2011, published 2013).
Where a name gives a salt, the structure may show the parent alone.

How the values were obtained:
[1] = system: barnyardgrass (Echinochloa crus-galli); test: Example 4: herbicidal activity, soil treatment, weed sown 9 days after treatment; type: in vivo; settings: score 0 to 100; 1,000 g/ha; 29 days after the chemical treatment (20 days after sowing)
Experimental: (§1) Plastic pots each having a diameter of 24 cm and a height of 21 cm were filled with the soil. A water dilution of a glyphosate potassium salt (liquid formulation containing 48% of a glyphosate potassium salt, manufactured by Nissan Chemical Industries, Ltd. under the trade name of Roundup Maxload) was prepared. A mixed solution of a water dilution of a flumioxazin water dispersible granule (water dispersible granule containing 51% of flumioxazin, manufactured by Valent USA Corporation under the trade name of Valor SX) and a water dilution of a saflufenacil was prepared. A mixed solution of a water dilution of a glyphosate potassium salt, a water dilution of a flumioxazin water dispersible granule and a water dilution of Saflufenacil was prepared. Each of the solutions thus prepared above was uniformly sprayed over the pots using a sprayer in an amount of 500 L/ha. The water dilution of saflufenacil was prepared by dissolving a predetermined amount of saflufenacil in acetone containing 2% (w/v) of Tween 20 (surfactant, manufactured by Tokyo Chemical Industry Co., Ltd.) and diluting the solution with water so that the acetone concentration will be 10 volume %.
(§2) After a chemical treatment, the pots were put in a greenhouse. […]
Seedlings of the plant were cultivated in the greenhouse and, 29 days after the chemical treatment (20 days after sowing), herbicidal activity was evaluated.

[2] = system: ivyleaf morningglory (Ipomoea hederacea); test: Example 3: herbicidal activity, soil treatment, weed sown 21 days after treatment; type: in vivo; settings: score 0 to 100; 20 g/ha; 45 days after the chemical treatment (24 days after sowing)
Experimental: as §1, with “of saflufenacil” for “of a glyphosate potassium salt (liquid formulation containing 48% of a glyphosate potassium salt, manufactured by Nissan Chemical Industries, Ltd. under the trade name of Roundup Maxload)”, “a glyphosate potassium salt (liquid formulation containing 48% of a glyphosate potassium salt, manufactured by Nissan Chemical Industries, Ltd. under the trade name of Roundup Maxload)” for “a saflufenacil”, “of saflufenacil,” for “of a glyphosate potassium salt,”, “of a glyphosate potassium salt” for “of Saflufenacil”
as §2
Seedling of the plant were cultivated in the greenhouse and, […] after the chemical treatment (24 days after sowing), herbicidal activity was evaluated.

Compound	Herbicidal activity Barnyardgrass [1]	Herbicidal activity Ivyleaf morningglory [2]
O=C(O)CNCP(=O)(O)O [Glyphosate potassium salt, glyphosate-potassium]	0	–
CC(C)N(C)S(=O)(=O)NC(=O)c1cc(-n2c(=O)cc(C(F)(F)F)n(C)c2=O)c(F)cc1Cl [Saflufenacil, N′-{2-chloro-4-fluoro-5-[1,2,3,6-tetrahydro-3-methyl-2,6-dioxo-4-(trifluoromethyl)pyrimidin-1-yl]benzoyl}-N-isopropyl-N-methylsulfamide]	–	45
